The values below come from EP4644396A1 (Visionpharma (Nantong) Co., Ltd, priority 2022, dated 2024).

Where two headings read alike, the source gives them in different places.

One assay addresses T1, human TLR7 (Homo sapiens, UniProt Q9NYK1).
T1 sequence (Q9NYK1 27-1049): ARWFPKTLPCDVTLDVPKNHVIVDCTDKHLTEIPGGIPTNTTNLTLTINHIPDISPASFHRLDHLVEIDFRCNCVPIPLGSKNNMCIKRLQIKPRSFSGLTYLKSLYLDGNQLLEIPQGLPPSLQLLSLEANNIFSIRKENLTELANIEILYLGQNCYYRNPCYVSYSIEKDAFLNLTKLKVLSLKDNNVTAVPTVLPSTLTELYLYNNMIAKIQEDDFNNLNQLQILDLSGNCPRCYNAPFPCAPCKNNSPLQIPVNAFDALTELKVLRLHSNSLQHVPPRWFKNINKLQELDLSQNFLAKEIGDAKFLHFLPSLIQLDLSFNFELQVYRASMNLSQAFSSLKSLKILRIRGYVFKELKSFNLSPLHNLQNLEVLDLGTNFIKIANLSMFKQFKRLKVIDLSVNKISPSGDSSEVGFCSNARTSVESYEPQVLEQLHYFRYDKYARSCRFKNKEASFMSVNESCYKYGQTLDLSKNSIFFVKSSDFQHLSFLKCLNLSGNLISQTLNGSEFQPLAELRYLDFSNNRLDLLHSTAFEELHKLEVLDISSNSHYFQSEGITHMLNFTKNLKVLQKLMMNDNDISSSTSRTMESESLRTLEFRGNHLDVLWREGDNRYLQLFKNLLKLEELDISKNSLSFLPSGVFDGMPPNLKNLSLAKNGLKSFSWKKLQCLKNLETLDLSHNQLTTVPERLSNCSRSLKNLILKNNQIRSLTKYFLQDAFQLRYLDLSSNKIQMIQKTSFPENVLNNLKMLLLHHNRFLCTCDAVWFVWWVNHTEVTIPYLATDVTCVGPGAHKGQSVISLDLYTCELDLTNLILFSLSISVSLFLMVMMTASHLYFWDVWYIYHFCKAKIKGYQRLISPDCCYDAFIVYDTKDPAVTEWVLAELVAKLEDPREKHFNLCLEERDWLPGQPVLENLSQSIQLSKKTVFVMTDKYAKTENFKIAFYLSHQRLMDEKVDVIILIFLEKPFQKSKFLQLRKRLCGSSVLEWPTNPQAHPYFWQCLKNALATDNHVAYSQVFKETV
The experiment in a line: HEK-Blue hTLR7 SEAP reporter gene inhibition assay. In kind it is cell-based. As for the experimental part: (§1) HEK-Blue cells with stable expression of human TLR7 or TLR8 were used in the evaluation of inhibitory activity of compounds in the present invention against TLR7 or TLR8, by using its ability to induce the SEAP reporting gene under the control of the fusion of IFN-β minimum promoters into five NF-κB and ap-1 binding sites, as follows: hTLR7 HEK-Blue cells (Invivogen, 80, 000 cells per well) or hTLR8 HEK-Blue cells (60, 000 cells per well) were added to a 96-well cell culture plate. A solution of the testing compounds were added to each well, with the final concentration of tested compounds in the medium ranged from 0.001 to 36 µM and the culture was incubated for 15 minutes. M5049 was used as positive controls in the testing.
(§2) Then a TLR7 ligand (Gardiquimod, purchased from MedChemExpress, with final concentration of ligand in cell culture medium kept at 10 µM) or a TLR8 ligand (purchased from MedChemExpress with final concentration in cell culture media at 10 µM) and the culture was incubated for 20 hours. According to the manufacturer's instructions, a HEK-Blue reagent Quanti-blue (Invivogen) was used to detect the SEAP levels in cell cultures. The half […] concentration or IC50 was calculated by using GraphPad Prism. […] Table 1: Activities of examples in this invention to hTLR7/8 in HEK-Blue Cells
For orientation: In a reporter assay the amount or activity of a reporter protein is the signal.

The next assay deals with T2, human TLR8 (Homo sapiens, UniProt Q9NR97).
T2 construct: expressed in transfected cells
T2 sequence (Q9NR97 27-1041): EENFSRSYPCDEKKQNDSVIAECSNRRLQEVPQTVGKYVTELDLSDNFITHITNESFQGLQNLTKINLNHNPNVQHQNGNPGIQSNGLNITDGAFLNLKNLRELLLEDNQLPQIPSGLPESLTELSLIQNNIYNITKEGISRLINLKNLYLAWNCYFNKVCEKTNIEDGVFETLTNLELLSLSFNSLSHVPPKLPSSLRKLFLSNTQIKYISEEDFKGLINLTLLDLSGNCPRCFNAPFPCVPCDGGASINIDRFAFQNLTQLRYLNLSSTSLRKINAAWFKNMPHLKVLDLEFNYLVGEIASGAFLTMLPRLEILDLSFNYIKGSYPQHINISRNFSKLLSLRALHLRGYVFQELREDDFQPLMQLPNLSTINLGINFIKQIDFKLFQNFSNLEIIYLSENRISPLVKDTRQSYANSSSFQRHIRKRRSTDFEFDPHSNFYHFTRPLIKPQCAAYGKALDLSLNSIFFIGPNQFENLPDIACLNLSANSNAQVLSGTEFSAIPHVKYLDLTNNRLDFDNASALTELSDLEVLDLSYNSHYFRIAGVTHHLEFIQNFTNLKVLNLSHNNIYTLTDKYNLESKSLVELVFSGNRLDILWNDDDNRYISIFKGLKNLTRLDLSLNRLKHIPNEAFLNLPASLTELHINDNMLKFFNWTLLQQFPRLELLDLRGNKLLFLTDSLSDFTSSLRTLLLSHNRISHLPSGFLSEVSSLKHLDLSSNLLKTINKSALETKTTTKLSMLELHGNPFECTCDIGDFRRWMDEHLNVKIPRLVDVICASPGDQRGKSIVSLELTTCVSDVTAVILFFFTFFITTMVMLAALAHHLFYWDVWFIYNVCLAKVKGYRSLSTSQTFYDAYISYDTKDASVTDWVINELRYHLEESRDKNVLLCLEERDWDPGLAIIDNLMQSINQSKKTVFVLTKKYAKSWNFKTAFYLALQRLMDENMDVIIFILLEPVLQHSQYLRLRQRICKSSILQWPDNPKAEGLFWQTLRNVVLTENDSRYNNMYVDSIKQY
The assay can be described thus: HEK-Blue hTLR8 SEAP reporter gene inhibition assay. In kind it is cell-based. The settings on record: hTLR8 HEK-Blue cells, TLR8 ligand 10 µM, 20 hours, SEAP by Quanti-blue; class symbols; read-out: HEK-Blue hTLR8 IC50. As for the experimental part:
as §1, §2

Where [1] appears, read: hTLR7 HEK-Blue cells, TLR7 ligand Gardiquimod 10 µM, 20 hours, SEAP by Quanti-blue, class symbols, read-out: HEK-Blue hTLR7 IC50.

The IC50 is the concentration needed to halve the response being measured. Consider `C[C@@H]1CN(c2ccc(C#N)n3ncc(F)c23)Cc2c3c(nn21)CC(N(C)C)CC3` (stereo partly drawn) [Example I-27, 4-((4R)-8-(dimethylamino)-4-methyl-3,4,7,8,9,10-hexahydropyrazino[1,2-b]indazol-2(1H)-yl)-3-fluoropyrazolo[1,5-a]pyridine-7-carbonitrile], for which the IC50 at human TLR7 (setting [1]) is more than 0.05 µM; at human TLR8, less than 100 nM.

On to `C[C@@H]1NCCc2c1nn1c2CN(c2ccc(C#N)n3ncc(F)c23)C[C@H]1C` [Example I-39, 4-((4R,7S)-4,7-dimethyl-3,4,7,8,9,10-hexahydropyrido[3',4':3,4]pyrazolo[1,5-a]pyrazin-2(1H)-yl)-3-fluoropyrazolo[1,5-a]pyridine-7-carbonitrile], for which the concentration for half-maximal inhibition (IC50) at human TLR7 (setting [1]) is less than 0.05 µM; on human TLR8, less than 100 nM.

Consider `C[C@@H]1CN(c2ccc(C#N)c3ncccc23)Cc2c3c(nn21)CN[C@@H](C)C3` [Example I-132, 5-((4R,9S)-4,9-dimethyl-3,4,7,8,9,10-hexahydropyrido[3',4':3,4]pyrazolo[1,5-a]pyrazin-2(1H)-yl)quinoline-8-carbonitrile], for which the IC50 at human TLR7 (setting [1]) is less than 0.05 µM; at human TLR8, less than 100 nM.

Turning to `C[C@@H]1CN(c2ccc(C#N)n3ncc(F)c23)Cc2c3c(nn21)CC(N1CCC(O)C1)CC3` (stereo partly drawn) [Example I-34, 3-Fluoro-4-((4R)-8-(3-hydroxypyrrolidin-1-yl)-4-methyl-3,4,7,8,9,10-hexahydropyrazino[1,2-b]indazol-2(1H)-yl)pyrazolo[1,5-a]pyridine-7-carbonitrile], the IC50 was less than 0.05 µM at human TLR7 (setting [1]) and less than 100 nM at human TLR8.

Turning to `C[C@@H]1CN(c2ccc(C#N)n3ncc(F)c23)Cc2c3c(nn21)C[C@](C)(N1CCC(O)C1)CC3` (stereo partly drawn) [Example I-187, 3-Fluoro-4-((4R,8R)-8-(3-hydroxypyrrolidin-1-yl)-4,8-dimethyl-3,4,7,8,9,10-hexahydropyrazino[1,2-b]indazol-2(1H)-yl)pyrazolo[1,5-a]pyridine-7-carbonitrile], the figures for the IC50 at human TLR7 (setting [1]) and on human TLR8 were less than 0.05 µM and less than 100 nM, respectively.

For `C[C@@H]1CN(c2ccc(C#N)n3ncc(F)c23)Cc2c3c(nn21)CN([C@@H]1CCNC1=O)[C@@H](C)C3` [Example I-155, 4-((4R,9S)-4,9-dimethyl-8-((R)-2-oxopyrrolidin-3-yl)-3,4,7,8,9,10-hexahydropyrido[3',4':3,4]pyrazolo[1,5-a]pyrazin-2(1H)-yl)-3-fluoropyrazolo[1,5-a]pyridine-7-carbonitrile], the IC50 on human TLR7 (setting [1]) is less than 0.05 µM; on human TLR8 it was more than 100 nM.

Regarding `C[C@@H]1Cc2c(nn3c2CN(c2ccc(C#N)n4ncc(F)c24)C[C@H]3C)CN1` [Example I-30b], the half-inhibitory concentration (IC50) on human TLR7 (setting [1]) is less than 0.05 µM; at human TLR8, less than 100 nM.

With `C[C@@H]1CN(c2ccc(C#N)n3ncc(F)c23)Cc2c3c(nn21)CN(CC(=O)N1CCOCC1)[C@@H](C)C3` [Example I-139, 4-((4R,9S)-4,9-dimethyl-8-(2-morpholino-2-oxoethyl)-3,4,7,8,9,10-hexahydropyrido [3',4':3,4]pyrazolo[1,5-a]pyrazin-2(1H)-yl)-3-fluoropyrazolo[1,5-a]pyridine-7-carbonitrile], the concentration for half-maximal inhibition (IC50) was less than 0.05 µM at human TLR7 (setting [1]) and more than 100 nM at human TLR8.

In the case of `C[C@@H]1CN(c2ccc(C#N)n3ncc(F)c23)Cc2c3c(nn21)CNCC3CO` (stereo partly drawn) [Example I-40, 3-Fluoro-4-((4R)-10-(hydroxymethyl)-4-methyl-3,4,7,8,9,10-hexahydropyrido [3',4':3,4]pyrazolo[1,5-a]pyrazin-2(1H)-yl)pyrazolo[1,5-a]pyridine-7-carbonitrile], the values for the half-inhibitory concentration (IC50) at human TLR7 (setting [1]) and on human TLR8 were more than 0.05 µM and less than 100 nM, respectively.

Turning to `CC(C)N1CCc2c(nn3c2CN(c2ccc(C#N)n4ncc(F)c24)C[C@H]3C)C1` [Example I-23, (R)-3-Fluoro-4-(8-isopropyl-4-methyl-3,4,7,8,9,10-hexahydropyrido[3',4':3,4]pyrazolo[1,5-a]pyrazin-2(1H)-yl)pyrazolo[1,5-a]pyridine-7-carbonitrile], the IC50 on human TLR7 (setting [1]) is more than 0.05 µM.

Regarding `CCN1CCc2nn3c(c2C1)CN(c1ccc(C#N)n2ncc(F)c12)C[C@H]3C` [Example I-25, (R)-4-(2-ethyl-7-methyl-1,3,4,7,8,10-hexahydropyrido[4',3':3,4]pyrazolo[1,5-a]pyrazin-9(2H)-yl)-3-fluoropyrazolo[1,5-a]pyridine-7-carbonitrile], the half-maximal inhibitory concentration (IC50) on human TLR7 (setting [1]) was less than 0.05 µM.

As for `C[C@@H]1CN(c2ccc(C#N)n3ncc(F)c23)Cc2c3c(nn21)CCN(Cc1ccn[nH]1)C3` [Example I-62], at human TLR7 (HEK-Blue hTLR7 IC50 (µM)), the IC50 is more than 0.05 µM.

In the case of `C[C@@H]1CN(c2ccc(C#N)n3ncc(F)c23)Cc2c3c(nn21)CCC(N)C3` (stereo partly drawn) [Example I-9, 4-((4R)-9-amino-4-methyl-3,4,7,8,9,10-hexahydropyrazino[1,2-b]indazol-2(1H)-yl)-3-fluoropyrazolo[1,5-a]pyridine-7-carbonitrile], at human TLR7 (setting [1]), the IC50 was more than 0.05 µM.

On human TLR7 (HEK-Blue hTLR7 IC50 (µM)), `C[C@@H]1CN(c2ccc(C#N)n3ncc(F)c23)Cc2c3c(nn21)CN(CC(=O)N1CCNCC1)[C@@H](C)C3` [Example I-113] came in with an IC50 of less than 0.05 µM.

Take `C[C@@H]1CN(c2ccc(C#N)n3ncc(F)c23)Cc2c3c(nn21)CN(CC(=O)N1CC2(COC2)C1)[C@@H](C)C3` [Example I-112, 4-((4R, 9S) -4,9-dimethyl-8-(2-oxydioxy-2-(2-oxytrioxy-6-nitrous [3.3]helium-6-ethyl)ethyl) -3,4,7,8,9, 10-hydropyridine [3 ', 4 ': 3, 4]pyrazole [1,5-a]pyrazine-2 (1 H) - yl) -3-fluoropyrazole [1,5-a] pyridine-7-nitrile]: the concentration for half-maximal inhibition (IC50) on human TLR7 (HEK-Blue hTLR7 IC50 (µM)) is more than 0.05 µM.

Take `CC(C)N1CCc2nn3c(c2C1)CN(c1ccc(C#N)n2ncc(F)c12)C[C@H]3C` [Example I-53, (R)-3-Fluoro-4-(2-isopropyl-7-methyl-1,3,4,7,8,10-hexahydropyrido[4',3':3,4]pyrazolo[1,5-a]pyrazin-9(2H)-yl)pyrazolo[1,5-a]pyridine-7-carbonitrile]: the IC50 at human TLR7 (setting [1]) is less than 0.05 µM.
